Experimental data reported in patent US20160367557A1, “HE[…] ACID DERIVATIVES WHICH ARE USEFUL IN THE TREATMENT, AMELIORATION OR PREVENTION OF A VIRAL DISEASE” (Savira pharmaceuticals GmbH, priority 2012, published 2016).

Tested on: influenza A virus (IAV) A/Aichi/2/68 (H3N2)
Assay: Cytopathic effect (CPE) assay
Assay type: cell-based
Settings: Influenza A virus, H3N2; MDCK cells, 48 hrs

SMILES	IC50 [µM]
O=C(O)c1cn(Cc2ccccc2-c2ccccc2)c2sc(NCc3ccccc3)nc2c1=O	19
O=C(O)c1cn(Cc2ccccc2-c2ccccc2)c2sc(NS(=O)(=O)c3ccccc3)nc2c1=O	17
O=C(O)c1cn(Cc2ccccc2-c2ccccc2)c2sc(NC3CC3)nc2c1=O	31
O=C(O)c1cn(Cc2ccccc2-c2ccccc2)c2sc(NS(=O)(=O)c3cccc(F)c3)nc2c1=O	19
O=C(O)c1cn(Cc2ccccc2-c2ccccc2)c2sc(NCc3ccc(Cl)cc3)nc2c1=O	9.3
O=C(O)c1cn(Cc2ccccc2-c2ccccc2)c2sc(NCc3cccc(Cl)c3)nc2c1=O	12
COc1ccc(S(=O)(=O)Nc2nc3c(=O)c(C(=O)O)cn(Cc4ccccc4-c4ccccc4)c3s2)cc1	15
O=C(O)c1cn(Cc2ccccc2-c2ccccc2)c2sc(NS(=O)(=O)c3ccc(Cl)cc3F)nc2c1=O	11
COc1ccc(CNc2nc3c(=O)c(C(=O)O)cn(Cc4ccccc4-c4ccccc4)c3s2)cc1	11
CC(Nc1nc2c(=O)c(C(=O)O)cn(Cc3ccccc3-c3ccccc3)c2s1)c1ccccc1 (stereo not shown)	24
O=C(O)c1cn(Cc2ccccc2-c2ccccc2)c2sc(O)nc2c1=O	33
CCOC(=O)c1cn(Cc2ccccc2-c2ccccc2)c2sc(NS(=O)(=O)c3ccc(Cl)cc3)nc2c1=O	23
O=C(O)c1cn(C(c2ccccc2)c2ccccc2)c2sc(NS(=O)(=O)c3ccc(Cl)cc3F)nc2c1=O	26
CCOC(=O)c1cn(C(c2ccccc2)c2ccccc2)c2sc(NS(=O)(=O)c3ccc(OC)cc3)nc2c1=O	36
CCOC(=O)c1cn(C(c2ccccc2)c2ccccc2)c2sc(NCc3ccc(Cl)cc3)nc2c1=O	45
COc1ccc(CNc2nc3c(=O)c(C(=O)O)cn(Cc4ccc(Cl)cc4-c4ccccc4)c3s2)cc1	22
O=C(O)c1cn(C(c2ccccc2)c2ccccc2)c2sc(NCc3cccc(Cl)c3)nc2c1=O	32
COc1ccc(S(=O)(=O)Nc2nc3c(=O)c(C(=O)O)cn(C(c4ccccc4)c4ccccc4)c3s2)cc1	31
CCOC(=O)c1cn(C(c2ccccc2)c2ccccc2)c2sc(NCc3cccc(Cl)c3)nc2c1=O	27
O=C(O)c1cn(C(c2ccccc2)c2ccccc2)c2sc(O)nc2c1=O	47
O=C(O)c1cn(Cc2ccc(Cl)cc2-c2ccccc2)c2sc(O)nc2c1=O	18
O=C(O)c1cn(C(c2ccccc2)c2ccccc2)c2sc(NCc3ccccc3)nc2c1=O	14
O=C(O)c1cn(Cc2ccccc2-c2ccccc2)c2sc(NS(=O)(=O)Cc3ccc(Cl)cc3Cl)nc2c1=O	20
COc1ccc(S(=O)(=O)Nc2nc3c(=O)c(C(=O)O)cn(Cc4ccccc4-c4ccc(Cl)cc4)c3s2)cc1	8.9
N#Cc1ccc(S(=O)(=O)Nc2nc3c(=O)c(C(=O)O)cn(Cc4ccccc4-c4ccc(Cl)cc4)c3s2)cc1	14

Same assay, conditions: MDCK cells, 48 hrs

SMILES	CPE activity in words
COCCNc1nc2c(=O)c(C(=O)O)cn(Cc3ccccc3-c3ccccc3)c2s1	inactive
CNc1nc2c(=O)c(C(=O)O)cn(Cc3ccccc3-c3ccccc3)c2s1	inactive
CC(C)Nc1nc2c(=O)c(C(=O)O)cn(Cc3ccccc3-c3ccccc3)c2s1	inactive
O=C(O)c1cn(Cc2ccccc2-c2ccccc2)c2sc(N3CCOCC3)nc2c1=O	inactive
CS(=O)(=O)Nc1nc2c(=O)c(C(=O)O)cn(Cc3ccccc3-c3ccccc3)c2s1	inactive
O=C(O)c1cn(Cc2ccccc2-c2ccccc2)c2scnc2c1=O	inactive
Nc1nc2c(=O)c(C(=O)O)cn(Cc3ccccc3-c3ccccc3)c2s1	inactive
O=C(O)c1c[nH]c2cc(C3CCCC3)nn2c1=O	inactive
CC(C)c1cc2n(CCCc3ccccc3)cc(C(=O)O)c(=O)n2n1	inactive
CC(C)c1cc2[nH]cc(C(=O)O)c(=O)n2n1	inactive
CS(=O)(=O)n1cc(C(=O)O)c(=O)n2nc(N)cc12	inactive
Nc1cc2n(Cc3ccccc3-c3ccccc3)cc(C(=O)O)c(=O)n2n1	inactive
O=C(O)c1cn(Cc2ccccc2-c2ccccc2)c2ccnn2c1=O	inactive
Nc1cc2n(S(=O)(=O)c3ccccc3)cc(C(=O)O)c(=O)n2n1	inactive
Nc1cc2n(S(=O)(=O)Cc3ccccc3)cc(C(=O)O)c(=O)n2n1	inactive
O=C(O)c1c[nH]c2ccnn2c1=O [drawing 207]	inactive
O=C(O)c1c[nH]c2nc(NCc3ccccc3)nn2c1=O [drawing 211]	inactive
Nc1cc2n(C(=O)C3(c4ccccc4)CCCC3)cc(C(=O)O)c(=O)n2n1 [drawing 213]	inactive
O=C(O)c1cn(CCc2cccc(Cl)c2)c2cc(C3CC3)nn2c1=O [drawing 215]	inactive
O=C(O)c1cn(CCc2cccc(F)c2)c2cc(C3CC3)nn2c1=O [drawing 216]	inactive
O=C(O)c1cn(CCc2ccccc2)c2cc(C3CCCC3)nn2c1=O [drawing 218]	inactive
CCOC(=O)c1cn(CCc2ccc(O)cc2)c2cc(C3CC3)nn2c1=O [drawing 220]	inactive
O=C(O)c1cn(CCc2cccc(C(F)(F)F)c2)c2cc(C3CC3)nn2c1=O [drawing 221]	inactive
O=C(O)c1cn(CCc2ccc(O)cc2)c2cc(C3CC3)nn2c1=O [drawing 222]	inactive
COc1ccc(CCn2cc(C(=O)O)c(=O)n3nc(C4CC4)cc23)cc1 [drawing 223]	inactive

Tested on: not given
Assay: not given
Settings: not given

SMILES	melting point [°C]
O=C(O)Cc1c[nH]c2nc(Nc3ccccc3)nn2c1=O	279 to 281
O=C(O)c1cn(Cc2ccccc2)c2cc(C3CC3)nn2c1=O	210 to 215
O=C(O)c1cn(CCc2ccccc2)c2cc(C3CC3)nn2c1=O	185 to 190
O=C(O)c1cn(CCc2ccc(O)cc2)c2cc(C3CC3)nn2c1=O	265 to 270
O=C(O)c1cn(CCc2ccc(Cl)cc2)c2cc(C3CC3)nn2c1=O	220 to 225
COc1ccc(CCn2cc(C(=O)O)c(=O)n3nc(C4CC4)cc23)cc1	145 to 150
O=C(O)c1cn(CCc2ccc(C(F)(F)F)cc2)c2cc(C3CC3)nn2c1=O	225 to 230
O=C(O)c1cn(CCc2cccc(Cl)c2)c2cc(C3CC3)nn2c1=O	230 to 235
O=C(O)c1cn(CCc2cccc(C(F)(F)F)c2)c2cc(C3CC3)nn2c1=O	200 to 205
O=C(O)c1cn(CCCc2ccccc2)c2cc(C3CC3)nn2c1=O	95 to 100
CC(C)c1cc2n(Cc3ccccc3)cc(C(=O)O)c(=O)n2n1	180 to 185
CC(C)c1cc2n(CCc3ccccc3)cc(C(=O)O)c(=O)n2n1	220 to 225
O=C(O)c1cn(Cc2ccccc2)c2cc(C3CCCC3)nn2c1=O	213 to 215
O=C(O)c1cn(CCc2ccccc2)c2cc(C3CCCC3)nn2c1=O	198 to 200
O=C(O)Cc1c[nH]c2cc(C(F)(F)F)nn2c1=O	320 to 324
O=C(O)Cc1c[nH]c2cc(C3CC3)nn2c1=O	> 300
O=C(NCCc1ccc(Cl)cc1)c1cc2[nH]cc(C(=O)O)c(=O)n2n1	> 300
CCOC(=O)c1c[nH]c2nc(NCc3ccccc3)nn2c1=O	275 to 278
CCOC(=O)c1c[nH]c2nc(NCc3ccc(Br)cc3)nn2c1=O	286 to 287
CCOC(=O)c1c[nH]c2nc(NCc3cccc4ccccc34)nn2c1=O	273 to 275
CCOC(=O)c1c[nH]c2nc(Nc3ccc(NC(C)=O)cc3)nn2c1=O	> 330
CCOC(=O)c1c[nH]c2nc(Nc3ccc(C)c(Cl)c3)nn2c1=O	> 340

SMILES	melting point [°C]
CCOC(=O)Cc1c[nH]c2nc(Nc3ccccc3)nn2c1=O	255 to 257
CCOC(=O)Cc1c[nH]c2nc(Nc3ccc(OC(C)C)cc3)nn2c1=O	235 to 240
CCOC(=O)c1c[nH]c2c(C#N)c(CCCNC)nn2c1=O	285 to 287
O=C(O)c1c[nH]c2cc(C3CC3)nn2c1=O	275 to 278
O=C(O)c1c[nH]c2cc(C(F)(F)F)nn2c1=O	> 340
CCOC(=O)c1cn(Cc2ccccc2)c2cc(C3CC3)nn2c1=O	160 to 165
CCOC(=O)c1cn(CCc2ccccc2)c2cc(C3CC3)nn2c1=O	155 to 160
CCOC(=O)c1cn(CCc2ccc(O)cc2)c2cc(C3CC3)nn2c1=O	95 to 100
CCOC(=O)c1cn(CCc2ccc(OC)cc2)c2cc(C3CC3)nn2c1=O	160 to 165
CCOC(=O)c1cn(CCc2cccc(Cl)c2)c2cc(C3CC3)nn2c1=O	160 to 165
CCOC(=O)c1cn(CCc2cccc(F)c2)c2cc(C3CC3)nn2c1=O	160 to 165
CCOC(=O)c1cn(Cc2ccccc2)c2cc(C(C)C)nn2c1=O	135 to 140
CCOC(=O)c1cn(CCc2ccccc2)c2cc(C(C)C)nn2c1=O	130 to 135
CCOC(=O)c1cn(CCc2ccccc2)c2cc(C3CCCC3)nn2c1=O	162 to 164
CCOC(=O)Cc1c[nH]c2cc(-c3ccccc3)nn2c1=O	245 to 250
CCOC(=O)Cc1c[nH]c2cc(C(F)(F)F)nn2c1=O	290 to 293
CCOC(=O)Cc1c[nH]c2cc(C3CC3)nn2c1=O	280 to 283
CCOC(=O)Cc1cn(C)c2cc(C3CC3)nn2c1=O	147 to 150
CCOC(=O)c1c[nH]c2cc(C(=O)NCCc3ccc(Cl)cc3)nn2c1=O	> 300
CCOC(=O)c1c[nH]c2cc(C(=O)NC3CCN(Cc4ccccc4)CC3)nn2c1=O	264 to 266
CCOC(=O)c1c[nH]c2cc(C(=O)NCc3ccccc3)nn2c1=O	290 to 292
O=C(O)c1c[nH]c2nc(NCc3ccccc3)nn2c1=O	240 to 245
